Test results as given in patent publication US6432954B1, “Pharmaceutical compositions and methods for use” (Targacept, Inc., priority 2000, dated 2002).

Key:
Assay type in all cases: physicochemical
[1] = Water absorption (hygroscopicity) of the salt
From the text: (§1) The salts of the present invention which are derived from aryl substituted amines and 2,3-diacyl-tartaric acids have a number of advantages over other salts derived from aryl substituted amines and other acids, such as fumaric acid or galactaric acid. […] As such, the di-p-toluoyl-D-tartrate salt of (2S)-(4E)-N-methyl-5-[3-(5-isopropoxypyridin)yl)]-4-penten-2-amine is a free-flowing crystalline powder; and such a property is a definite advantage for pharmaceutical formulation development and pharmaceutical manufacturing. If necessary, this salt can be milled to an acceptable particle size range for pharmaceutical processing. […] The salt is compatible with a wide range of excipients that might be chosen for the manufacture of solid oral dosage forms. This is especially so for those exicipients, such polysaccharide derivatives, that are pharmaceutically defined hydrates and those with only loosely bound surface water. As an illustration, salts derived from certain aryl substituted amines, such as E-metanicotine and fumaric acid are prone to the formation of impurities within the salt. For example, impurities arise from the Michael addition reaction of the secondary amine in E-metanicotine to the olefin in fumaric acid. These impurities lower the chemical purity of the salt and adversely affect the chemical integrity of the salt upon long-term storage. […]

[2] = Water solubility of the salt
From the text: as §1

[3] = Physical and chemical stability of the salt
From the text: as §1

amount of water absorbed ([1]; room temperature and 90% relative humidity)	water solubility [2]	stability [3]	amount of water absorbed ([1]; 40° C. and 70% relative humidity)	Structure (SMILES)
3.2%	water soluble	physically and chemically stable		CN[C@@H](C)C/C=C/c1cncc(OC(C)C)c1 [Sample No. 2, (2S)-(4E)-N-methyl-5-[3-(5-isopropoxypyridin)yl]-4-penten-2-amine hemi-(di-p-toluoyl-D-tartrate)]
			11.8%	CN[C@@H](C)C/C=C/c1cncc(OC(C)C)c1.CN[C@@H](C)C/C=C/c1cncc(OC(C)C)c1.O=C(O)[C@@H](O)[C@H](O)[C@H](O)[C@@H](O)C(=O)O [hemigalactarate of (2S)-(4E)-N-methyl-5-[3-(5-isopropoxypyridin)yl)]-4-penten-2-amine, reference compound]
